From US20240368078A1, “ARYL HETEROCYCLIC COMPOUNDS AS Kv1.3 POTASSIUM SHAKER CHANNEL BLOCKERS” (D.E. SHAW RESEARCH, LLC, priority 2021, published 2024)

Experiments:
[1] = biological target: hERG channel (Homo sapiens (Human), UniProt Q12809); test: hERG electrophysiology, automated whole-cell patch clamp in CHO-K1 cells stably expressing hERG; assay type: cell-based; conditions: Patchliner patch clamp
Experimental: Example 22. Evaluation of hERG Activities
This assay is used to evaluate the disclosed compounds's inhibition activities against the hERG channel.
This assay is used to evaluate the disclosed compounds' inhibition activities against the hERG channel.
CHO-K1 cells stably expressing hERG were grown in Ham's F-12 Medium with glutamine containing 10% heat-inactivated FBS, 1% penicillin/streptomycin, hygromycin (100 μg/ml) and G418 (100 μg/ml). Cells were grown in culture flasks at 37° C. in a 5% CO2— humidified incubator.
(§1) The cells were bathed in an extracellular solution containing 140 mM NaCl, 4 mM KCl, 2 mM CaCl2), 1 mM MgCl2, 5 mM Glucose, 10 mM HEPES; pH adjusted to 7.4 with NaOH; 295-305 mOsm. The internal solution contained 50 mM KCl, 10 mM NaCl, 60 mM KF, 20 mM EGTA, 10 mM HEPES; pH adjusted to 7.2 with KOH; 285 mOsm. All compounds were dissolved in DMSO at 30 mM. Compound stock solutions were freshly diluted with external solution to concentrations of 30 nM, 100 nM, 300 nM, 1 μM, 3 μM, 10 μM, 30 μM and 100 μM. The highest content of DMSO (0.3%) was present in 100 μM.
The voltage protocol (see Table B) was designed to simulate voltage changes during a cardiac action potential with a 300 ms depolarization to +20 mV (analogous to the plateau phase of the cardiac action potential), a repolarization for 300 ms to −50 mV (inducing a tail current) and a final step to the holding potential of −80 mV. The pulse frequency was 0.3 Hz. Control (compound-free) and compound pulse trains for each compound concentration applied contained 70 pulses.
(§2) Whole-cell current recordings and compound application were enabled by means of an automated patch clamp platform Patchliner (Nanion). EPC 10 patch clamp amplifier (HEKA) along with Patchmaster software (HEKA Elektronik Dr. Schulze GmbH) was used for data acquisition. Data were sampled at 10 kHz without filtering. Increasing compound concentrations were applied consecutively to the same cell without washouts in between.
AUC and PEAK values were obtained with Patchmaster (HEKA Elektronik Dr. Schulze GmbH). To determine IC50 the last single pulse in the pulse train corresponding to a given compound concentration was used. Obtained AUC and PEAK values in the presence of compound were normalized to control values in the absence of compound. Using Origin (OridinLab), IC50 was derived from data fit to Hill equation: Icompound/Icontrol=(100−A)/(1+([compound]/IC50)nH)+A, where IC50 is the concentration at which current inhibition is half-maximal, [compound] is the applied compound concentration, A is the fraction of current that is not blocked and nH is the Hill coefficient.

[2] = biological target: Kv1.3 potassium channel (Homo sapiens (Human), UniProt P22001); test: Kv1.3 potassium channel blocker activity, automated whole-cell patch clamp in CHO-K1 cells stably expressing Kv1.3; assay type: cell-based; conditions: Patchliner patch clamp
Experimental: Example 21. Evaluation of Kv1.3 Potassium Channel Blocker Activities
This assay is used to evaluate the disclosed compounds' activities as Kv1.3 potassium channel blockers.
CHO-K1 cells stably expressing Kv1.3 were grown in DMEM containing 10% heat-inactivated FBS, 1 mM sodium pyruvate, 2 mM L-glutamine, and G418 (500 μg/ml). Cells were grown in culture flasks at 37° C. in a 5% C02-humidified incubator.
as §1, with “glucose,” for “Glucose,”
The currents were evoked by applying 100 ms depolarizing pulses from −90 mV (holding potential) to +40 mV were applied with 0.1 Hz frequency. Control (compound-free) and compound pulse trains for each compound concentration applied contained 20 pulses. 10-second breaks were used between pulse trains (see Table A below).
as §2, with “(Nanion Technologies GmbH).” for “(Nanion).”, “(HEKA Elektronik Dr. Schulze GmbH)” for “(HEKA)”, “filtering. Passive leak currents were subtracted online using a P/4 procedure (HEKA Elektronik Dr. Schulze GmbH).” for “filtering.”, “between. Total compound incubation time before the next pulse train was not longer than 10 seconds. Peak current inhibition was observed during compound equilibration.” for “between.”
AUC and peak values were obtained with Patchmaster (HEKA Elektronik Dr. Schulze GmbH). To determine IC50, the last single pulse in the pulse train corresponding to a given compound concentration was used. Obtained AUC and peak values in the presence of compound were normalized to control values in the absence of compound. Using Origin (OridinLab), IC50 was derived from data fit to Hill equation: Icompound/Icontrol=(100-A)/(1+([compound]/IC50)nH)+A, where IC50 value is the concentration at which current inhibition is half-maximal, [compound] is the applied compound concentration, A is the fraction of current that is not blocked and nH is the Hill coefficient.

Sequence of hERG channel (Q12809 whole entry): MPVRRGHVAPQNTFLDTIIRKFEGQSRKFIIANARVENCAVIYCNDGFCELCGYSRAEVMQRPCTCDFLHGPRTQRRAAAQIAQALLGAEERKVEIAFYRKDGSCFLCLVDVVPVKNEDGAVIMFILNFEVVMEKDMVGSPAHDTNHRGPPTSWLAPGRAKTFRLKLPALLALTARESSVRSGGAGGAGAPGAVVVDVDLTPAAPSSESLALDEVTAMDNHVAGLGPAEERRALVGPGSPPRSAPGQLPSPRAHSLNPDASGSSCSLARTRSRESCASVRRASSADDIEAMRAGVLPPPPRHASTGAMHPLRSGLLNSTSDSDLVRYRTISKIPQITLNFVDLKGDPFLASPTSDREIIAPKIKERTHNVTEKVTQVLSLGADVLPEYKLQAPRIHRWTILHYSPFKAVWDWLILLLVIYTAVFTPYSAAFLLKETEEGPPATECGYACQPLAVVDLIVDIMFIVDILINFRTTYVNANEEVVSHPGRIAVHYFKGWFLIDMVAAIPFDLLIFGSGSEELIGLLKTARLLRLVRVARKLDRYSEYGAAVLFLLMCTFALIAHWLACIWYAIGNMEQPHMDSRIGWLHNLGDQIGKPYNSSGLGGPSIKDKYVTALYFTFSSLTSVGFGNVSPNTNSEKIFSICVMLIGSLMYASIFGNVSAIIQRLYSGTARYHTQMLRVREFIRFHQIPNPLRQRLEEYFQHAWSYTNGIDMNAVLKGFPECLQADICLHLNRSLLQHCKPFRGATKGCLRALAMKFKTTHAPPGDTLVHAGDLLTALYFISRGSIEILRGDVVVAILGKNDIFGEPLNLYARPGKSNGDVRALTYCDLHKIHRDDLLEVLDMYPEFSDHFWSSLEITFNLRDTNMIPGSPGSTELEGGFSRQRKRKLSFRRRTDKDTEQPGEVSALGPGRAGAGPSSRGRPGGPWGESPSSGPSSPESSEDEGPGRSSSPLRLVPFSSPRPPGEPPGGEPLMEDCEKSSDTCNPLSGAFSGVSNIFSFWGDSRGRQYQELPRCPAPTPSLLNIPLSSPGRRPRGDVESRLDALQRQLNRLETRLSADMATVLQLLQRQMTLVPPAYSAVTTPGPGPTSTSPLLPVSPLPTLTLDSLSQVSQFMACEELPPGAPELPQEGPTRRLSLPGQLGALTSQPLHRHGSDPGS
Sequence of Kv1.3 potassium channel (P22001 whole entry): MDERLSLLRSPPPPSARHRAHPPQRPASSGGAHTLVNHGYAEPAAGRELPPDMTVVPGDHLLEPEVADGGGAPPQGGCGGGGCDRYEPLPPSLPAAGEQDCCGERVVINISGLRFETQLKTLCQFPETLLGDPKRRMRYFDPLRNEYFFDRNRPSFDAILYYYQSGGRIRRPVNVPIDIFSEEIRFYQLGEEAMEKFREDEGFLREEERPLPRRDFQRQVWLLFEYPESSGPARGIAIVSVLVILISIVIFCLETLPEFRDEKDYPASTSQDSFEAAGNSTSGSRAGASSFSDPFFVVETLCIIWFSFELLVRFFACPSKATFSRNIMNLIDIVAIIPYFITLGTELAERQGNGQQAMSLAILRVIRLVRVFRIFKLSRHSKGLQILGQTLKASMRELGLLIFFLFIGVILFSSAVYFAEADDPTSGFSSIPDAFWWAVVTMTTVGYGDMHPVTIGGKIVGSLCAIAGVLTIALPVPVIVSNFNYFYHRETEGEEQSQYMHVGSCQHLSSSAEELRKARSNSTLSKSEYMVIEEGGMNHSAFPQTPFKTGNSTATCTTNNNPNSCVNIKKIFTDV

| Structure (SMILES) | IC50 [2] | IC50 [1] |
| --- | --- | --- |
| O=C(CC1CN[C@@H](c2c(O)ccc(Cl)c2Cl)C1)N1CC(O)(CO)C1 (stereo partly drawn) [Compound 33, 2-((5R)-5-(2,3-dichloro-6-hydroxyphenyl)pyrrolidin-3-yl)-1-(3-hydroxy-3-(hydroxymethyl)azetidin-1-yl)ethan-1-one] | < 0.1 µM | > 100 µM |
| O=C(CC1CN[C@@H](c2c(O)ccc(Cl)c2Cl)C1)NCCO (stereo partly drawn) [Compound 34, 2-((5R)-5-(2,3-dichloro-6-hydroxyphenyl)pyrrolidin-3-yl)-N-(2-hydroxyethyl)acetamide] | < 0.1 µM | > 100 µM |
| CN(CCO)C(=O)CC1CN[C@@H](c2c(O)ccc(Cl)c2Cl)C1 (stereo partly drawn) [Compound 35, 2-((5R)-5-(2,3-dichloro-6-hydroxyphenyl)pyrrolidin-3-yl)-N-(2-hydroxyethyl)-N-methylacetamide] | < 0.1 µM | > 30 µM |
| NC(=O)CC1CN[C@@H](c2cc(Cl)c(Cl)cc2O)C1 (stereo partly drawn) [Compound 38, 2-((5R)-5-(4,5-dichloro-2-hydroxyphenyl)pyrrolidin-3-yl)acetamide] | < 1 µM | > 10 µM |
| O=C(CC1CN[C@@H](c2c(O)ccc(Cl)c2Cl)C1)N1CC[C@@H](O)C1 (stereo partly drawn) [Compound 39, 2-((5R)-5-(2,3-dichloro-6-hydroxyphenyl)pyrrolidin-3-yl)-1-((R)-3-hydroxypyrrolidin-1-yl)ethan-1-one] | < 0.1 µM | > 100 µM |
| O=C(CC1CN[C@@H](c2c(O)ccc(Cl)c2Cl)C1)N1CC[C@H](O)C1 (stereo partly drawn) [Compound 40, 2-((5R)-5-(2,3-dichloro-6-hydroxyphenyl)pyrrolidin-3-yl)-1-((S)-3-hydroxypyrrolidin-1-yl)ethan-1-one] | < 1 µM | > 100 µM |
| O=C(C[C@H]1CN[C@@H](c2c(O)ccc(Cl)c2Cl)C1)N1CC(O)(CO)C1 [Compound 43, 2-((3S,5R)-5-(2,3-dichloro-6-hydroxyphenyl)pyrrolidin-3-yl)-1-(3-hydroxy-3-(hydroxymethyl)azetidin-1-yl)ethan-1-one] | < 0.1 µM | > 100 µM |
| O=C(CO)NC[C@@H]1CN[C@@H](c2c(O)ccc(Cl)c2Cl)C1 [Compound 48, N-{[(3S,5R)-5-(2,3-dichloro-6-hydroxyphenyl)pyrrolidin-3-yl]methyl}-2-hydroxyacetamide] | < 1 µM | > 30 µM |
| O=C(CO)NC[C@H]1CN[C@@H](c2c(O)ccc(Cl)c2Cl)C1 [Compound 49, N-(((3R,5R)-5-(2,3-dichloro-6-hydroxyphenyl)pyrrolidin-3-yl)methyl)-2-hydroxyacetamide] | < 1 µM | > 100 µM |
| NC(=O)C[C@@H]1CC[C@H](c2c(O)ccc(Cl)c2Cl)N1 [Compound 53, 2-((2S,5R)-5-(2,3-dichloro-6-hydroxyphenyl)pyrrolidin-2-yl)acetamide] | < 1 µM | > 100 µM |
| Oc1ccc(Cl)c(Cl)c1[C@H]1C[C@@H](Cc2cn[nH]c2)CN1 [Compound 54, 3,4-dichloro-2-[(2R,4R)-4-(1H-pyrazol-4-ylmethyl)pyrrolidin-2-yl] phenol] | < 0.1 µM | > 10 µM |
| Oc1ccc(Cl)c(Cl)c1[C@H]1C[C@@H](Cc2cc[nH]n2)CN1 [Compound 55, 2-((2R,4S)-4-((1H-pyrazol-3-yl)methyl)pyrrolidin-2-yl)-3,4-dichlorophenol] | < 1 µM | > 10 µM |

Second part, led by results:

| IC50 [2] | Structure (SMILES) | IC50 [1] |
| --- | --- | --- |
| < 1 µM | C[C@@H](C(N)=O)[C@H]1CN[C@@H](c2c(O)ccc(Cl)c2Cl)C1 (single isomer, unassigned) [Compound 44] | > 100 µM |
| < 0.1 µM | C[C@H](C(N)=O)[C@H]1CN[C@@H](c2c(O)ccc(Cl)c2Cl)C1 (single isomer, unassigned) [Compound 45] | > 100 µM |
| < 1 µM | CC[C@@H](C(N)=O)[C@H]1CN[C@@H](c2c(O)ccc(Cl)c2Cl)C1 (single isomer, unassigned) [Compound 46] | > 100 µM |
| < 0.1 µM | CC[C@H](C(N)=O)[C@H]1CN[C@@H](c2c(O)ccc(Cl)c2Cl)C1 (single isomer, unassigned) [Compound 47] | 100 µM |
| < 1 µM | COC[C@H](C(N)=O)[C@H]1CN[C@@H](c2c(O)ccc(Cl)c2Cl)C1 (single isomer, unassigned) [Compound 74] | > 100 µM |
| < 1 µM | COC[C@@H](C(N)=O)[C@H]1CN[C@@H](c2c(O)ccc(Cl)c2Cl)C1 (single isomer, unassigned) [Compound 75] | > 100 µM |
| < 1 µM | NC(=O)[C@@H](CO)[C@H]1CN[C@@H](c2c(O)ccc(Cl)c2Cl)C1 (single isomer, unassigned) [Compound 76] | > 100 µM |
| < 0.1 µM | NC(=O)C(CO)[C@H]1CN[C@@H](c2c(O)ccc(Cl)c2Cl)C1 (single isomer, unassigned) [Compound 77] | > 100 µM |
| < 1 µM | NC(=O)C[C@H]1CN[C@@H](c2c(O)ccc(Cl)c2Cl)C1 [Compound 31, 2-[(3S,5R)-5-(2,3-dichloro-6-hydroxyphenyl)pyrrolidin-3-yl]acetamide] | > 100 µM |
| < 0.1 µM | CNC(=O)CC1CN[C@@H](c2c(O)ccc(Cl)c2Cl)C1 (stereo partly drawn) [Compound 36, 2-((5R)-5-(2,3-dichloro-6-hydroxyphenyl)pyrrolidin-3-yl)-N-methylacetamide] | > 30 µM |
| < 1 µM | CN(C)C(=O)CC1CN[C@@H](c2c(O)ccc(Cl)c2Cl)C1 (stereo partly drawn) [Compound 37, 2-((5R)-5-(2,3-dichloro-6-hdyroxyphenyl)pyrrolidin-3-yl)-N,N-dimethylacetamide] | > 30 µM |
| < 1 µM | CN(C)C(=O)C[C@H]1CN[C@@H](c2c(O)ccc(Cl)c2Cl)C1 [Compound 41, 2-((3S,5R)-5-(2,3-dichloro-6-hydroxyphenyl)pyrrolidin-3-yl)-N,N-dimethyalcetamide] | > 30 µM |
| < 0.1 µM | CNC(=O)C[C@H]1CN[C@@H](c2c(O)ccc(Cl)c2Cl)C1 [Compound 42, 2-((3S,5R)-5-(2,3-dichloro-6-hydroxyphenyl)pyrrolidin-3-yl)-N-methylacetamide] | > 30 µM |
| < 1 µM | CC(C)(C(N)=O)[C@H]1CN[C@@H](c2c(O)ccc(Cl)c2Cl)C1 [Compound 52, 2-[(3S,5R)-5-(2,3-dichloro-6-hydroxyphenyl)pyrrolidin-3-yl]-2-methylpropanamide] | > 30 µM |
